Data on one compound can be found in patent publication US20150072943A1, “MIXTURE OF POLAR G[…] USE IN THE TREATMENT OF PAIN AND COPD” (SANOFI, priority 2012, published 2015).

Assay [1] has as its system release of TNFalpha induced by E. Coli-LPS in human bronchus parenchyma tissue culture. Put plainly: LPS-induced TNFalpha release in human bronchus parenchyma tissue culture. The assay is classed as cell-based. An excerpt:
Human parenchymal lung tissue was obtained from patients undergoing resection for carcinoma at San Gerardo Hospital, Monza, Italy. Patients had not received radiotherapy or chronic treatment with steroids, opioids or chemotherapy. All specimens of parenchymal tissue were obtained from sites distant from the tumour. The study was approved by the institutional ethics committee of San Gerardo hospital Monza Italy and all volunteers gave informed consent. Resected lung tissue was dissected free of tumour, large airways, pleura and visible blood vessels and finely chopped using dissecting scissors, into 2 mm fragments during several washes with Kreb's buffer (([…]: NaCl 118.4, KCl 4.7, CaCl2 2.5, KH2PO4 1.2, NaHCO3 25, glucose 11.7). Six explants (total weight approx. 30 mg) were incubated in culture bioreactor (Synthecon/NASA USA) with RPMI-1640 medium containing 1% penicillin, 1% streptomycin, and 1% gentamycin at 37° C. in 5% carbon dioxide/air for 16 hours. Tissue was then either stimulated with 100 ng/ml LPS (Sigma-Aldrich) or maintained in cell culture media alone for 4 hours. For neutralization of TNF, tissue was incubated with 0.01, 0.1, or 1 μM of VB3323 for 1 hr prior to stimulation with 100 ng/ml LPS. […] The levels of TNFalpha in the supernatant were measured by enzyme-linked immunosorbent assay (ELISA) and the concentration corrected for tissue weight. […]

Assay [2] deals with release of TNFalpha induced by E Coli LPS in mouse bronchus parenchyma tissue culture. The assay can be described thus: LPS-induced TNFalpha release in mouse bronchus parenchyma tissue culture. In kind it is cell-based. The method, then:
The animals (BALB/c male mice, 20-22 g body weight) were sacrificed by cervical dislocation. The thoracic cage was opened cutting the ribs. Clamping the heart with surgical tweezers, lungs and heart were dissected from the thoracic cavity using surgical scissors and putted in cold Krebs solution ([…]: NaCl 118.4, KCl 4.7, CaCl2 2.5, KH2PO4 1.2, NaHCO3 25, glucose 11.7). Large airways and visible blood vessels were dissected. The lungs were divided in fragments of 30 mg (˜5 pieces/mouse) and finely chopped (six pieces of ˜2 mm3 each fragment) using a scalpel. Six explants (total weight 30 mg) were incubated per well (2.0 cm2) of a 24 well plate with 1 ml of RPMI-1640 medium (RPMI-1640+antibiotic antimycotic solution 100x, Sigma-Aldrich) at 37° C. in 5% carbon dioxide/air for 16 hours. Then the medium was replaced with fresh medium and the tissue was treated for 1 hour with compound. After one hour, the tissue was stimulated with 100 ng/ml LPS E. Coli 055:B5 (Sigma-Aldrich). 4 hour after LPS stimulation, supernatant was harvested and stored at −80° C. until ELISA analysis. Three of six tissue explants were fixed in 10% formalin buffer for histological/immunohistochemical analysis. The other three tissue explants were put in RNA-later buffer overnight and then stored at −80° C. […]

Molecules are shown by their SMILES.

In general, inhibition refers to the relative decrease from the control value, in per cent. Low values mean a response near the control, high ones a response far below the control. For the compound `C[C@@H]1C[C@H]2[C@@H]3CCC4=CC(=O)C=C[C@]4(C)[C@@]3(F)[C@@H](O)C[C@]2(C)[C@@]1(O)C(=O)CO` [Dexamethasone], the inhibition at 1 µM in assay [1] is 69%; in assay [2], 67%.
